Test results reported in US20220170940A1, “BIOMARKER WITH THERAPEUTIC IMPLICATIONS FOR PERITONEAL CARCINOMATOSIS” (SINGAPORE HEALTH SERVICES PTE LTD, priority 2019, published 2022).

Legend:
Colo-205 cells [1] = assay: In vitro drug treatment, CellTitreGlo proliferation of cell-free ascites-treated cells; format: cell-based, Human; conditions: 5% cell-free ascites of PPA, CAP, APA groups or FBS control, 72 hours
Description: A total of 5,000 cells/wells were seeded in 96-well plates and were grown for 24 hours in serum-free RPMI medium supplemented with 5% cell-free ascites or complete media, and then treated with various concentrations of TM5441 (PAI-1 inhibitor), Tiplaxtinin (PAI-1 inhibitor), Napabucasin (STAT3 inhibitor), BEZ235 (dual PI3K/mTOR inhibitor) and Mitomycin C (chemotherapeutic agent used in hyperthermic intraperitoneal chemotherapy (HIPEC)) for 72 hours. Cell proliferation was assessed using CellTitreGlo assay (Promega, Madison, US). These experiments were performed in triplicates and were repeated at least 3 times.

phospho-STAT3 (Tyr705) = assay: p-STAT3 (Y705) ELISA of cell-free ascites-treated cancer cells with TM5441; format: cell-based, Human; conditions: cells exposed to PPA cell-free ascites (PC085, PC383) versus CAP (PC249) and APA (PC010)
Description: Concentrations of PAI-1 (DSE100), IL6 (D6050), IL10 (D1000B), CCL2 (DCP00), MMP9 (DMP900), ANGPT1 (DANG10), TGFB1 (DB100B), and CXCL10 (DIP100) in cell-free ascites were quantified using human Quantikine ELISA kits from R&D Systems. Concentrations of POSTN (DY3548B) and CD44 (DY7045-05) in cell-free ascites were quantified using human DuoSet ELISA kits from R&D Systems. VSIG4 (ELH-VSIG4-1) concentration in cell-free ascites was quantified using ELISA from RayBiotech. All samples were performed with 2 technical replicates according to the manufacturers' instructions. Total STAT3 and phospho-STAT3 (Tyr705) were detected with ELISA (7305C and 7300C, Cell Signalling Technology, Massachusetts, US). Proteins were isolated from cell lysates of Colo-205 and SNU-C1 that were treated with 5% cell-free ascites for 24 hours. In all experiments, 25 μg of protein was used for total STAT3 and p-STAT3(Y705) ELISA following the manufacturer's instructions.

[2] = tested on: IL6-JAK-STAT3 signalling pathway; assay: Gene expression profiling (RNA microarray, GSEA) upon PAI-1 inhibition; format: cell-based, Human; conditions: Colo-205 cells, PPA cell-free ascites (PC085), 27.25 μM TM5441 vs DMSO, 24 hours
Description: To assess signalling pathways affected by PAI-1 inhibition, Colo-205 cells were treated with cell-free ascites representative of PAI-1 paracrine addicted (PPA) group, co-activators predominant (CAP) group or foetal bovine serum (FBS; control) in the presence of DMSO vehicle or 27.25 μM TM5441 for 24 hours. Total RNA was isolated using Qiagen Mini Kit (Qiagen, CA, USA), following the manufacturer's instructions. Gene expression profiling was performed using Affymetrix GeneChip Genome U133 Plus 2.0 microarray platform (Affymetrix, Santa Clara, Calif.) in accordance to manufacturer's protocols. Microarray data was uploaded into the free programming software R (R Foundation for Statistical Computing, Vienna, Austria) for processing and normalization. Gene Set Enrichment Analysis (GSEA) was used to assess enrichment of genes showing up- and down-regulation using GSEA graphical user interface (GUI) software (http://www.broadinstitute.org/gsea/).

[3] = tested on: patient-derived ascites-dependent xenograft (PDADX) tumours; assay: Patient-derived ascites-dependent xenografts (PDADXs) drug treatment; format: in vivo, BALB/c nude mice; conditions: 2 mM TM5441 i.p. every 3 days for 21 days
Description: Ascites collected from patients with peritoneal carcinomatosis were centrifuged at 2000 g for 10 minutes to concentrate the cellular components and to separate the fluid component. 1 mL of cell pellet was resuspended with 1 mL of ascitic fluid and 400 μL of the mixture was implanted intraperitoneally into 6-week-old BALB/c nude mice (n=5 mice) to generate patient-derived ascites-dependent xenograft (PDADX) passage 0 (P0). For subsequent passages, patient-derived ascites-dependent xenograft (PDADX) tumours were diced into small pieces using scalpel blades and passed through an 18-G syringe needle. Diced tumours were resuspended with matched patient's ascites at 1:1 ratio and implanted intraperitoneally into 6-week-old BALB/c nude mice (n=10 mice).
Matched patient's cell-free ascites and its cellular components were used to generate patient-derived ascites-dependent xenografts (PDADXs) to better recapitulate peritoneal carcinomatosis patients. PAI-1 paracrine addicted (PPA) patient-derived ascites-dependent xenograft (PDADX) tumours (100 mg) were implanted into 16 female BALB/c nude mice intraperitoneally and co-activators predominant (CAP) patient-derived ascites-dependent xenograft (PDADX) tumours (100 mg) were implanted into 16 female BALB/c nude mice intraperitoneally. […] Tumour burden was quantified by weighing all visible tumours after mice were sacrificed.
Briefly, co-activators predominant (CAP) patient-derived ascites-dependent xenograft (PDADX) tumours (100 mg) were implanted into 16 female BALB/c nude mice intraperitoneally. […] Tumour burden was quantified by weighing all visible tumours after mice were sacrificed.

Colo-205 cells [4] = assay: In vivo PC cell line mouse model drug treatment (ascites groups); parameters: species or system BALB/c nude mice; conditions: PPA cell-free ascites (PC085)-treated mice; 1.75 mM TM5441 i.p. every 3 days for 21 days; n=5 mice/group
Description: To determine the efficacy of PAI-1 inhibition in different susceptibility ascites groups in vivo, 5×10^6 of Colo-205 cells were co-injected with cell-free ascites representative of PAI-1 paracrine addicted (PPA) group, co-activators predominant (CAP) group or foetal bovine serum (FBS) into abdominal cavity of 6- to 8-week-old BALB/c nude mice (female, n=5 mice/group) and treated with 1.75 mM TM5441 administered intraperitoneally. Ascites and drug treatment were performed by injecting 400 μL of 5% cell-free ascites or 10% foetal bovine serum (FBS) with TM5441 intraperitoneally every 3 days for a duration of 21 days. After 3 weeks, the mice were sacrificed and tumour burden was quantified based on a modified peritoneal carcinomatosis index (PCI) score and presented as total peritoneal carcinomatosis index (PCI) score. Total peritoneal carcinomatosis index (PCI) score was calculated based on the sum of score for each region and ranges from 0 to 39.

Colo-205 cells [5] = assay: In vivo PC cell line mouse model, drug concentration and delivery method (i.p. vs oral); parameters: species or system BALB/c nude mice; conditions: PPA cell-free ascites (PC085); i.p. every 3 days up to 21 days; n=4 mice/group
Description: To determine the optimal drug concentration and drug delivery method, a total of 16 female BALB/c nude mice with the age of 6-8 weeks old were selected for the experiment. Each mouse was injected with 5×10^6 of Colo-205 cells intraperitoneally. The mice were divided into 4 groups and given the following treatments: (i) 5% cell-free ascites with 1% DMSO, (ii) 5% cell-free ascites with 1 mM TM5441, (iii and iv) 5% cell-free ascites with 2 mM TM5441. Treatment was performed by injecting 400 μL of 5% cell-free ascites with DMSO vehicle/drug intraperitoneally (i-iii) and orally (iv) every 3 days, up to 21 days. After 3 weeks, the mice were sacrificed and tumour burden was quantified based on a modified peritoneal carcinomatosis index (PCI) score and presented as total peritoneal carcinomatosis index (PCI) score. Total peritoneal carcinomatosis index (PCI) score was calculated based on the sum of score for each region and ranges from 0 to 39.

Compound: Cn1c(=O)n(-c2ccc(C(C)(C)C#N)cc2)c2c3cc(-c4cnc5ccccc5c4)ccc3ncc21 [BEZ235]
- Sensitivity of cell-free ascites-treated Colo-205 cells to inhibitor (dose-response, cell proliferation) (Colo-205 cells [1]): ineffective

Compound: CO[C@@]12[C@H](COC(N)=O)C3=C(C(=O)C(C)=C(N)C3=O)N1C[C@@H]1N[C@@H]12 [Mitomycin C]
- Sensitivity of cell-free ascites-treated Colo-205 cells to inhibitor (dose-response, cell proliferation) (Colo-205 cells [1]): ineffective

Compound: CC(=O)c1cc2c(o1)C(=O)c1ccccc1C2=O [Napabucasin]
- Sensitivity of cell-free ascites-treated Colo-205 cells to inhibitor (dose-response, cell proliferation) (Colo-205 cells [1]): ineffective

Compound: O=C(COCC(=O)Nc1ccc(Cl)cc1C(=O)[O-])Nc1cccc(-c2ccoc2)c1.[Na+] [TM5441, 5-Chloro-2-[[2-[2-[[3-(3-furanyl)phenyl]amino]-2-oxoethoxy]acetyl]amino]benzoic acid sodium salt]
- Concentration needed to suppress STAT3 activation (p-STAT3 ELISA) (phospho-STAT3 (Tyr705)): required a lower concentration of TM5441 to supress STAT3 activation
- IL6-JAK-STAT3 signalling pathway regulation (GSEA) [2]: significantly down-regulated
- Tumour burden (weight of all visible tumours), PC249 PDADX with PPA cell-free ascites (PC383) ([3]; CAP PDADX (PC249) exposed to PC383 PPA ascites): became susceptible to PAI-1 inhibition
- Tumour burden (weight of all visible tumours), PC249 PDADX with matched cell-free ascites ([3]; CAP PDADX (PC249), matched CAP ascites): no reduction in tumour burden compared to vehicle control
- Tumour burden (weight of all visible tumours), PC383 PDADX with matched cell-free ascites ([3]; PPA PDADX (PC383), matched PPA ascites, n=4 mice/group): significantly superior inhibition of tumour growth compared to vehicle control
- Tumour burden (modified PCI score) (Colo-205 cells [4]): significant reduction in tumour burden
- Sensitivity of cell-free ascites-treated Colo-205 cells to inhibitor (dose-response, cell proliferation) (Colo-205 cells [1]): PAI-1 paracrine addicted (PPA) (n=18) being the most sensitive to PAI-1 inhibition, followed by co-activators predominant (CAP) (n=59) and alternative pathways activation (APA) (n=17)
- Formation of peritoneal tumours (modified PCI score), intraperitoneal instillation (Colo-205 cells [5]): effectively inhibited

Compound: O=C(O)C(=O)c1cn(Cc2ccccc2)c2ccc(-c3ccc(OC(F)(F)F)cc3)cc12 [Tiplaxtinin, 2-(1-Benzyl-5-(4-(trifluoromethoxy)phenyl)-1H-indol-3-yl)oxoacetic acid]
- Sensitivity of cell-free ascites-treated Colo-205 cells to inhibitor (dose-response, cell proliferation) (Colo-205 cells [1]): showed the same trend of differential response
